According to patent US11846630B2, “Coordinately-ordered single cells with individual identities for high-throughput assay” (Northeastern University, priority 2019, dated 2023):

Tests used:
HeLa cells = experiment: ROS assay (CellROX Orange) on coordinated single cell pattern; settings: 1 μM doxorubicin for 6 hours
OT-1 cells = experiment: Microwell ELISA immunoassay of interferon-γ secreted by peptide-stimulated OT-1 cells; assay type: cell-based; settings: OVA peptide concentration 0.5, 1, 2, 4, 8 μg/mL; FIG. 12, panel C
From the text: Surface of the microwells can be chemically modified with capture agents, such as antibodies, to detect cytokines secreted by T cells during the T cell-cancer cells interaction. […] The cytokine detection is based on ELISA sandwich structure and quantified based on the fluorescence intensity of Avidin Texas red. Due to the existence of BSA on the top layer, the majority of antibodies were only absorbed on the inner surface of the microwells (bottom and inside wall of microwell), which enhanced capturing signals and reduced background. The location of the capture antibody after BSA saturation was indicated using Rhodamine-BSA and FITC-Antibody and shown in FIG. 11, panel B, in which BSA only covered the top layer of microwell and the green fluorescent capture antibody was mainly present inside the microwells after BSA saturation, enhancing the signals from the microwells. The fluorescence images of interferon-γ at two concentrations are shown in FIG. 11, panel C, and the standard curve of fluorescence versus interferon-γ concentration is presented in FIG. 11, panel D. According to the standard curve, imaged-based ELISA using the microwells detected a wide range of the cytokine concentrations from 0.1 ng/mL to 5 ng/mL, and the concentrations determined based on fluorescence intensity ranged from 0.8×10^5 to 2.7×10^5. […]

Compound: COc1cccc2c1C(=O)c1c(O)c3c(c(O)c1C2=O)C[C@@](O)(C(=O)CO)C[C@@H]3O[C@H]1C[C@H](N)[C@H](O)[C@H](C)O1 [doxorubicin]
- ROS orange signal intensity after subsequent X-ray exposure (HeLa cells; then X-ray 10.8 Gy, compared with doxorubicin alone): much higher level of damage than that of doxorubicin alone
- ROS orange signal (HeLa cells; identical cell analysis, FIG. 3): increases

Compound: SINFEKL [OVA peptide, OVA peptide (SINFEKL) used to stimulate OT-1 cells to secrete cytokines]
- intensity of the interferon-γ fluorescence (OT-1 cells): increased
